Source: publication PMC10895678 (Journal of Medicinal Chemistry, 2024)
Several values for one entry are separate records, joined by “and”; a condition that tells them apart may be missing. Equal values may be shown once. Read-outs that look alike come from different tables or passages of the source.

Assay: Mouse PK, combined (cassette) dosing of BGAz-001–005
Assay type: in vivo, KM mice
Design: AUMC(0-t) / VRT(0-t) / λz: unit not given here
Details: for AUC(0-t): read-out: AUC(0-t); for MRT last: read-out: MRT(0-t); for MRT inf: read-out: MRT(0-∞); for Vd/F: read-out: Vz/F
Source text: Methods for combined single dosing (BGAz001–005) and dosing of single compounds multiple times (BGAz004 and BGAz005) are described in detail in the Supporting Information (PK Data).
Report on PK Results of Combined Dosing with BGAz-001–005
1 Materials and instrument combined dosing
An MS2 Turnover type oscillator was purchased from IKA Work’s Guangzhou (China), and a 5415R ChromatographicanalyseswereconductedusinganAgilent1290InfinityIIhighperformanceliquidchromatography andAgilentTechnologies6470TripleQuadLC/MS.Propranolol(≥90%inpurity,internalstandard,IS)waspurchased fromtheSigmaChemicalCo.(China).Formicacid(HPLCgrade)andmethanol(HPLCgrade)werepurchasedfrom DIKMACo.(China).Allchemicalsandsolventswereanalyticalgrade.WaterwaspurifiedusingaMillipore(AK,USA) laboratoryultra-purewatersystem(0.2μmfilter).
KMmice,weighing25–35g(BeijingVitalRiverLaboratoryAnimalTechnologyCo.,Ltd.,China)wereutilisedforthe studies.The protocols were approved by the Animal Care and Use Committee, GIBH. Animals were maintained on standard animal chow and waterad libitum, in a climate-controlled room (23±1 °C 30–70% relative humidity, a minimumof tenexchangesof roomairperhouranda12hlight/darkcycle)foroneweekpriortoexperiments.
3 Pharmacokinetic studies
Compounds BGAz-001 ，BGAz-002 ，BGAz-003 ，BGAz-004 and BGAz-005 were dissolved mixed in a solution containing DMSO (2%),ethanol (4%), Cremophor EL (4%) and ddH2O (90%); Pharmacokinetic propertiesof KM (male) were determined following IV, PO and IP administration. Animals were randomly distributed into three experimentalgroups(n=4).ThePOgroupwasgivenmixedsolutionwith5mg/kgbygastricgavage.TheIVgroup was dosed with mixed solution 1mg/kg byinjection into the tail vein. The IP group was dosed with mixed solution 1mg/kg by intraperitoneal injection. After single administration, whole blood samples (100 μL) were obtained from the orbital venousplexus atthe followingtime pointsafter dosing:5, 15,30 minand 1,3, 5,8, 24hour (PO and IP groups) and at the following time points after dosing 2, 10, 30min and 1, 3, 5, 8,24 hour (IV group). Wholeblood samples were collected in heparinised tubes. The plasma fraction was immediately separated by centrifugation. The micewerehumanelyeuthanasiabycarbondioxide24hoursafterexperimentwithoutpain.
4 Plasma sample and brain sample analysis
4.1 Standard curve sample preparation
ThecompoundsweredissolvedinDMSO(2mg/mL)anddilutedwithtoseriesconcentration(methanol:H 2O,1:1,10 μL) and blank plasma (50 μL) were added to 1.5 mL tubes and vortexed for 3 min, then acetonitrile-containing internalstandard(150μL)wasaddedandvortexedforafurther5min,andsubsequentlyspuninacentrifugeat13000 […]
4.2 Plasma and preparation
Plasmasampleswerepreparedusingaproteinprecipitationmethod.Solution(10μL,methanolH 2O,1:1)andplasma samples(50μL)wereaddedto1.5mLtubesandvortexfor3min,thenacetonitrile-containinginternalstandard(150 μL)wasaddedandvortexfor5min,andsubsequentlyspuninacentrifugeat13000× gfor40minat4°C.
Aftercentrifugation,supernatant(100μL)wastransferto96wellplatesandanalysedbyLC-MS/MSusinganAgilent 1290InfinityIIHPLCandanAgilentTechnologies6470TripleQuadLC/MS.

[1] = IP 1 mg/kg, cassette, mean of animals
[2] = IV 1 mg/kg, cassette, mean of animals
[3] = PO 5 mg/kg, cassette, mean of animals
[4] = male, KM, mouse, plasma, IP 1 mg/kg, cassette
[5] = male, KM, mouse, plasma, IP 1 mg/kg, cassette, mean of animals
[6] = male, KM, mouse, plasma, IV 1 mg/kg, cassette
[7] = male, KM, mouse, plasma, IV 1 mg/kg, cassette, mean of animals
[8] = male, KM, mouse, plasma, PO 5 mg/kg, cassette
[9] = male, KM, mouse, plasma, PO 5 mg/kg, cassette, mean of animals

CNCC1CC(c2ccc(OC(F)(F)F)cc2)N1Cc1ccccc1OC(F)(F)F (stereo not drawn) [BGAz-005]
AUMC(0-t) [1]: 2746.024 **μg
AUMC(0-∞) [1]: 5711.413 **μg
CLz/F [1]: 2.157 L/kg
C_last [1]: 5.459 µg
R_AUC(t/∞) [1]: 83.575%
VRT(0-t) [1]: 43.817 ^2
VRT(0-∞) [1]: 202.71 ^2
λz [1]: 0.079 1/
AUC(0-∞) (IP 1 mg/kg, cassette, summary table): 464.151 µg·h
AUMC(0-t) [2]: 2221.012 **μg
AUMC(0-∞) [2]: 3469.367 **μg
CLz/F [2]: 2.386 L/kg
C_last [2]: 2.531 µg
R_AUC(t/∞) [2]: 91.7%
VRT(0-t) [2]: 45.323 ^2
VRT(0-∞) [2]: 139.16 ^2
Vz/F [2]: 28.599 L/kg
λz [2]: 0.098 1/
AUC(0-∞) (IV 1 mg/kg, cassette, summary table): 424.729 µg·h
BA (PO 5 mg/kg vs IV 1 mg/kg, cassette): 72.63%
AUMC(0-t) [3]: 6391.819 **μg
AUMC(0-∞) [3]: 80528.925 **μg
CLz/F [3]: 14.928 L/kg
C_last [3]: 18.45 µg
R_AUC(t/∞) [3]: 55.825%
VRT(0-t) [3]: 47.178 ^2
VRT(0-∞) [3]: 2247.307 ^2
λz [3]: 0.017 1/
AUC(0-∞) (PO 5 mg/kg, cassette, summary table): 1542.381 µg·h
AUC(0-inf) (male, KM, mouse, plasma, ip, 1 mg/kg, IP 1 mg/kg, cassette, mean of animals, read-out: AUC(0-∞)): 464 ng·h/mL
Cmax (male, KM, mouse, plasma, ip, 1 mg/kg, IP 1 mg/kg, cassette, mean of animals, read-out: Cmax): 41.9 ng/mL
Tmax (male, KM, mouse, plasma, ip, 1 mg/kg, IP 1 mg/kg, cassette, mean of animals, read-out: Tmax): 0.646 h
Cmax (male, KM, mouse, plasma, ip, 1 mg/kg, IP 1 mg/kg, cassette, summary table, read-out: Cmax): 41.9 ng/mL
half-life (male, KM, mouse, plasma, ip, 1 mg/kg, IP 1 mg/kg, cassette, summary table, read-out: T1/2 (converted)): 9.34 h
Tmax (male, KM, mouse, plasma, ip, 1 mg/kg, IP 1 mg/kg, cassette, summary table, read-out: Tmax): 0.646 h
AUC(0-inf) (male, KM, mouse, plasma, iv, 1 mg/kg, IV 1 mg/kg, cassette, mean of animals, read-out: AUC(0-∞)): 425 ng·h/mL
Cmax (male, KM, mouse, plasma, iv, 1 mg/kg, IV 1 mg/kg, cassette, mean of animals, read-out: Cmax): 320 ng/mL
Tmax (male, KM, mouse, plasma, iv, 1 mg/kg, IV 1 mg/kg, cassette, mean of animals, read-out: Tmax): 0.033 h
Cmax (male, KM, mouse, plasma, iv, 1 mg/kg, IV 1 mg/kg, cassette, summary table, read-out: Cmax): 320 ng/mL
half-life (male, KM, mouse, plasma, iv, 1 mg/kg, IV 1 mg/kg, cassette, summary table, read-out: T1/2 (converted)): 8.05 h
Tmax (male, KM, mouse, plasma, iv, 1 mg/kg, IV 1 mg/kg, cassette, summary table, read-out: Tmax): 0.033 h
AUC(0-inf) (male, KM, mouse, plasma, po, 5 mg/kg, 5 mg/kg PO, cassette dosing, read-out: AUC0-inf): 1540 ng·h/mL
Cmax (male, KM, mouse, plasma, po, 5 mg/kg, 5 mg/kg PO, cassette dosing, read-out: Cmax (Mouse, P.O.)): 43.1 ng/mL
half-life (male, KM, mouse, plasma, po, 5 mg/kg, 5 mg/kg PO, cassette dosing, read-out: T1/2 (Mouse, P.O.) (converted)): 35.7 h
Tmax (male, KM, mouse, plasma, po, 5 mg/kg, 5 mg/kg PO, cassette dosing, read-out: Tmax (Mouse, P.O.)): 6 h
AUC(0-inf) (male, KM, mouse, plasma, po, 5 mg/kg, PO 5 mg/kg, cassette, mean of animals, read-out: AUC(0-∞)): 1540 ng·h/mL
Cmax (male, KM, mouse, plasma, po, 5 mg/kg, PO 5 mg/kg, cassette, mean of animals, read-out: Cmax): 43.1 ng/mL
Tmax (male, KM, mouse, plasma, po, 5 mg/kg, PO 5 mg/kg, cassette, mean of animals, read-out: Tmax): 6 h
Cmax (male, KM, mouse, plasma, po, 5 mg/kg, PO 5 mg/kg, cassette, summary table, read-out: Cmax): 43.1 ng/mL
half-life (male, KM, mouse, plasma, po, 5 mg/kg, PO 5 mg/kg, cassette, summary table, read-out: T1/2 (converted)): 35.7 h
Tmax (male, KM, mouse, plasma, po, 5 mg/kg, PO 5 mg/kg, cassette, summary table, read-out: Tmax): 6 h
concentration at 0.083 h [4]: 27 ng/mL and 60 nM
concentration at 0.25 h [4]: 70 nM and 29.8 ng/mL
concentration at 0.5 h [4]: 80 nM and 36.3 ng/mL
concentration at 1 h [4]: 90 nM and 39.8 ng/mL
concentration at 3 h [4]: 80 nM and 33.4 ng/mL
concentration at 5 h [4]: 50 nM and 21.3 ng/mL
concentration at 8 h [4]: 40 nM and 15.4 ng/mL
concentration at 24 h [4]: 10 nM and 5.44 ng/mL
AUC(0-t) [5]: 388 ng·h/mL
MRT last [5]: 7.13 h
MRT inf [5]: 12.3 h
Vd/F [5]: 28.9 L/kg
concentration at 0.033 h (male, KM, mouse, plasma, IV 1 mg/kg, cassette, 0.033 h): 320 ng/mL and 740 nM
concentration at 0.167 h (male, KM, mouse, plasma, IV 1 mg/kg, cassette, 0.167 h): 330 nM and 145 ng/mL
concentration at 0.5 h [6]: 170 nM and 75.2 ng/mL
concentration at 1 h [6]: 120 nM and 50.1 ng/mL
concentration at 3 h [6]: 60 nM and 25.4 ng/mL
concentration at 5 h [6]: 40 nM and 16.1 ng/mL
concentration at 8 h [6]: 20 nM and 10.3 ng/mL
concentration at 24 h [6]: 10 nM and 5.2 ng/mL
C0 [7]: 392 ng/mL
AUC(0-t) [7]: 392 ng·h/mL
MRT last [7]: 5.5 h
MRT inf [7]: 8.24 h
concentration at 0.083 h [8]: 7.08 ng/mL and 20 nM
concentration at 0.25 h [8]: 30 nM and 11.3 ng/mL
concentration at 0.5 h [8]: 50 nM and 20.4 ng/mL
concentration at 1 h [8]: 70 nM and 32.5 ng/mL
concentration at 3 h [8]: 90 nM and 39.1 ng/mL
concentration at 5 h [8]: 90 nM and 37.6 ng/mL
concentration at 8 h [8]: 90 nM and 40.2 ng/mL
concentration at 24 h [8]: 60 nM and 24.3 ng/mL
AUC(0-t) [9]: 621 ng·h/mL
MRT last [9]: 8.45 h
MRT inf [9]: 38.7 h
Vd/F [9]: 129 L/kg
